According to ChEMBL document CHEMBL5291721, “A preclinical secondary pharmacology resource illuminates target-adverse drug reaction associations of marketed drugs” (Nat Commun, 2023):

Tests used:
[1] = biological target: T1, 5-hydroxytryptamine receptor 2B (Homo sapiens, UniProt P41595); assay type: functional, cell-based
[2] = biological target: Beta-2 adrenergic receptor (Homo sapiens, UniProt P07550); assay type: functional, cell-based
[3] = biological target: T1, 5-hydroxytryptamine receptor 2B; assay type: functional, cell-based; remark: listed apart in the source
[4] = biological target: T2, B2 bradykinin receptor (Homo sapiens, UniProt P30411)
T2 sequence (P30411 whole entry): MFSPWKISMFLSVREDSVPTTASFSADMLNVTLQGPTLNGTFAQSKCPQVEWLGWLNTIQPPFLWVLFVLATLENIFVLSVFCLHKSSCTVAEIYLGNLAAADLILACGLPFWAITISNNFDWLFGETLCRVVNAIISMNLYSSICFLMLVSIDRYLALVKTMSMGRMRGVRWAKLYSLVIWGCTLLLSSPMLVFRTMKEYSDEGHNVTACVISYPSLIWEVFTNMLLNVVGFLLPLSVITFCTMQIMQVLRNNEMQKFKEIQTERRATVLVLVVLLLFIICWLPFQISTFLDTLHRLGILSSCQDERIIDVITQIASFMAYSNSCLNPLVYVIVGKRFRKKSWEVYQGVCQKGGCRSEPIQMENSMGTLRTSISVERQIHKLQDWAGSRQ

[5] = biological target: Sodium-dependent dopamine transporter (Homo sapiens, UniProt Q01959)
Sodium-dependent dopamine transporter, sequence (Q01959 whole entry): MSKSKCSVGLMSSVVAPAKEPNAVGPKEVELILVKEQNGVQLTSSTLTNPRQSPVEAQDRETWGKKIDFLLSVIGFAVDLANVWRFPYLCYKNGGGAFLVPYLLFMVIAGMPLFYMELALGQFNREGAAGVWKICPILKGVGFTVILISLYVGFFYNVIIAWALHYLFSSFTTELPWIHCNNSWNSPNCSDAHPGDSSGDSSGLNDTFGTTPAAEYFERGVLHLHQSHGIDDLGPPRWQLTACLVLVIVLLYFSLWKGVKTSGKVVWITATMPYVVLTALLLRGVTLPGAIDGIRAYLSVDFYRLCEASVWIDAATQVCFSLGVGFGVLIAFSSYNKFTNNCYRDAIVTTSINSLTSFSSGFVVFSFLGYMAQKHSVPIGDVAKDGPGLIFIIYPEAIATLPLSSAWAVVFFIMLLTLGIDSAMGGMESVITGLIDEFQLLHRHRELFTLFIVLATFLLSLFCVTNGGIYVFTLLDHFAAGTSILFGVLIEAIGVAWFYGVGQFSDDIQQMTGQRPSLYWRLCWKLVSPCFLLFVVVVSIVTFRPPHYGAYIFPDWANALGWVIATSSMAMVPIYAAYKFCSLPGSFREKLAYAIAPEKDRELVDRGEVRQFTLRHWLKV

[6] = biological target: Melanocortin receptor 4 (Homo sapiens, UniProt P32245)
Melanocortin receptor 4, sequence (P32245 whole entry): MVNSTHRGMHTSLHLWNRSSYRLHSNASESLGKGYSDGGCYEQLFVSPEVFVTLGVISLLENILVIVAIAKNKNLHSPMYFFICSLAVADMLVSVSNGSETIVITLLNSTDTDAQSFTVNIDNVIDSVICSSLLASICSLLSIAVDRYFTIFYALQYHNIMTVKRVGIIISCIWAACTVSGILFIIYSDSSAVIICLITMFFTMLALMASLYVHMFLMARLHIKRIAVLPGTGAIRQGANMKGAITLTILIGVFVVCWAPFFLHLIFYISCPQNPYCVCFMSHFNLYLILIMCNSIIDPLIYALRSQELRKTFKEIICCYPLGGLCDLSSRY

[7] = biological target: Vasopressin V2 receptor (Homo sapiens, UniProt P30518)
Vasopressin V2 receptor, sequence (P30518 whole entry): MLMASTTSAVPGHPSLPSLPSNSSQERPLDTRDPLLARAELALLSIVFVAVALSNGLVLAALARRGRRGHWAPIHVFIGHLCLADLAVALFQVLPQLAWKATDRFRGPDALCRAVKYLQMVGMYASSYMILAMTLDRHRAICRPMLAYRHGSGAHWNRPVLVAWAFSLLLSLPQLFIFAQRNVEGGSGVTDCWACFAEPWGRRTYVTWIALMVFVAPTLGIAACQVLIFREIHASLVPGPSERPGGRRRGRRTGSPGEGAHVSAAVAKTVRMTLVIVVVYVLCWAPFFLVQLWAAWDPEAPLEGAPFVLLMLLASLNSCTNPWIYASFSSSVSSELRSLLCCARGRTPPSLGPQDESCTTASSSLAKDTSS

[8] = biological target: Mu-type opioid receptor (Homo sapiens, UniProt P35372)
Mu-type opioid receptor, sequence (P35372 whole entry): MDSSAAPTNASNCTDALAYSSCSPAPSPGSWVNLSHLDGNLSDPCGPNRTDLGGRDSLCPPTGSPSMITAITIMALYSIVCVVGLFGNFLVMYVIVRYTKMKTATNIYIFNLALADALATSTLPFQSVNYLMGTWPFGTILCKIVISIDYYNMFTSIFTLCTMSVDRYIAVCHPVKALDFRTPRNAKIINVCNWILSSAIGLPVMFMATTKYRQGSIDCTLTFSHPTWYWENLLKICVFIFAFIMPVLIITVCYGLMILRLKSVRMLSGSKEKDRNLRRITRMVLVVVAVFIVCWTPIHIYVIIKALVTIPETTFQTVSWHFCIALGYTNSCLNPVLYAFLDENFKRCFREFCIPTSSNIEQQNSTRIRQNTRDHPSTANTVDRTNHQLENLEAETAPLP

[9] = biological target: T3, Estrogen receptor (Homo sapiens, UniProt P03372)
T3 sequence (P03372 whole entry): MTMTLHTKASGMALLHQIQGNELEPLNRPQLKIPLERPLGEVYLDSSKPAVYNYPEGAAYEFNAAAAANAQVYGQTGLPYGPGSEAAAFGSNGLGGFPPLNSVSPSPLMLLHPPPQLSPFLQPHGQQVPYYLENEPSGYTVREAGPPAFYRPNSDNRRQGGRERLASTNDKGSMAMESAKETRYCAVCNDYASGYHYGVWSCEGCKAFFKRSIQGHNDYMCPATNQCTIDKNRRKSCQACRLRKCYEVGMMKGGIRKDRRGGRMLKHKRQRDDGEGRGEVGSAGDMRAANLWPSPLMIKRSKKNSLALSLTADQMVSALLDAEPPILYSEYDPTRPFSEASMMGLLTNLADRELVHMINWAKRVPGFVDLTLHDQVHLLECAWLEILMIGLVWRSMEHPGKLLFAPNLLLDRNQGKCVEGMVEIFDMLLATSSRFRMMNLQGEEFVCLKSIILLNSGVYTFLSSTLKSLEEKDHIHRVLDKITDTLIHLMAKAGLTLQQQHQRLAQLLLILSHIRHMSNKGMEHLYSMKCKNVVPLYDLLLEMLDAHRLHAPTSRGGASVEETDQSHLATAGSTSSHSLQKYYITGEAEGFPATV

[10] = biological target: Cannabinoid receptor 1 (Homo sapiens, UniProt P21554); assay type: functional, cell-based
Cannabinoid receptor 1, sequence (P21554 whole entry): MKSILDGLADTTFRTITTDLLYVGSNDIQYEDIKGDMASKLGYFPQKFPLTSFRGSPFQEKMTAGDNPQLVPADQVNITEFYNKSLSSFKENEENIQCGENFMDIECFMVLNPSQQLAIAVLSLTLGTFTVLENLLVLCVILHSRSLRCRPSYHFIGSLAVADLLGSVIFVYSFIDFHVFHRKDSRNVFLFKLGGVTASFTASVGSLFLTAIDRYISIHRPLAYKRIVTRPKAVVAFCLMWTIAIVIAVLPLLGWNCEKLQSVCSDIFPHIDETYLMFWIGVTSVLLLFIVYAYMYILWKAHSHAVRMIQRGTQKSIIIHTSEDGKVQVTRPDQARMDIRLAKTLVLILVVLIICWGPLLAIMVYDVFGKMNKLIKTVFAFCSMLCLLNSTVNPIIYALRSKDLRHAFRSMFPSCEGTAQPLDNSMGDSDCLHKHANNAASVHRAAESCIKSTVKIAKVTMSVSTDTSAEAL

[11] = biological target: T4, Progesterone receptor (Homo sapiens, UniProt P06401); assay type: functional
T4 sequence (P06401 whole entry): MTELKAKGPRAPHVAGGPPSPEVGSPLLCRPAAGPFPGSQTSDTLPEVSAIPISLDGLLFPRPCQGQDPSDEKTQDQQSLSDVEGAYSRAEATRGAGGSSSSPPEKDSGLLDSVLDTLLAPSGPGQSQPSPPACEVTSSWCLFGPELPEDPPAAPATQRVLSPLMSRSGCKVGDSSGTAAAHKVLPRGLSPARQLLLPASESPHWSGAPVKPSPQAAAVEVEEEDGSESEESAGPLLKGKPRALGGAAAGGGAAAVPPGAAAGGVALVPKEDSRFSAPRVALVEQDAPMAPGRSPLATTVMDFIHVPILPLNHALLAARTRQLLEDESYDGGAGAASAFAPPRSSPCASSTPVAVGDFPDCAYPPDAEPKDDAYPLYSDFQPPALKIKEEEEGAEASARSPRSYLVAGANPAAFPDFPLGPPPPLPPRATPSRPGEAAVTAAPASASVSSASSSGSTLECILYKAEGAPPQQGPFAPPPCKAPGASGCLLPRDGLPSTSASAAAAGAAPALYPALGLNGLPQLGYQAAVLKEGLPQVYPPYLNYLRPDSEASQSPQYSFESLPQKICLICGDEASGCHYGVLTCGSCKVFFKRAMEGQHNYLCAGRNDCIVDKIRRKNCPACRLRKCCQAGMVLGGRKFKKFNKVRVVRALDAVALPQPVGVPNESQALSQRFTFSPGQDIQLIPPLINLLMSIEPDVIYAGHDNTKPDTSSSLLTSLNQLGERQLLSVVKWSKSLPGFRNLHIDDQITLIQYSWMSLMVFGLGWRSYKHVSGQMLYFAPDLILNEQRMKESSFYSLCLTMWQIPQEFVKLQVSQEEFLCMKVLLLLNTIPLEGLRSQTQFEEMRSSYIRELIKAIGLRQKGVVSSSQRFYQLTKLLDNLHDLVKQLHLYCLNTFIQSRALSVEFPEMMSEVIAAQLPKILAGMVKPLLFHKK

[12] = biological target: T5, Alpha-2B adrenergic receptor (Homo sapiens, UniProt P18089)
T5 sequence (P18089 whole entry): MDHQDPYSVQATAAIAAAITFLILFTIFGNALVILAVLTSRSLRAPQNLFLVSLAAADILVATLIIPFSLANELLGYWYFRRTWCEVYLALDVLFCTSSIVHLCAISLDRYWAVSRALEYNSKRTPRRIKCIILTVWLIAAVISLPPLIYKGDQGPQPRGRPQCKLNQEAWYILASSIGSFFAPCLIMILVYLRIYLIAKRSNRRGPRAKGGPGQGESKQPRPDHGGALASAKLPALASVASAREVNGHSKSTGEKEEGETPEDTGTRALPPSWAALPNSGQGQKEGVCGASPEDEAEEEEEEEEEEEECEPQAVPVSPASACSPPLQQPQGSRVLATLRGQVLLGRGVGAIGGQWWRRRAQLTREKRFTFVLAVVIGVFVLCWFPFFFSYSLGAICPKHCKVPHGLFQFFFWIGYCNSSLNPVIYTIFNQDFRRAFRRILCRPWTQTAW

[13] = biological target: 5-hydroxytryptamine receptor 2A (Homo sapiens, UniProt P28223); assay type: functional, cell-based
5-hydroxytryptamine receptor 2A, sequence (P28223 whole entry): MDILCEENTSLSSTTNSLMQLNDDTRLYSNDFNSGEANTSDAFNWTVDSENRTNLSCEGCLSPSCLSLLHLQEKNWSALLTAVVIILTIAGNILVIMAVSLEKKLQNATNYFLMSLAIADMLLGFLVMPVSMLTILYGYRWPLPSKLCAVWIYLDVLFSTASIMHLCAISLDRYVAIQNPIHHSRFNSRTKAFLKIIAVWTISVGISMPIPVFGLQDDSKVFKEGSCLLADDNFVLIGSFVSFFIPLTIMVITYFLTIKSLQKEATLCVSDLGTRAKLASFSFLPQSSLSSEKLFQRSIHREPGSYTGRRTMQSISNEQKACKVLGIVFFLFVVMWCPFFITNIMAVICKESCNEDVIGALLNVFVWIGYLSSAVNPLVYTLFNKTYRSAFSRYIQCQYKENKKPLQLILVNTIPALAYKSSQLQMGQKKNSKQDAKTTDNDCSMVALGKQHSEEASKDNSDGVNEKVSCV
Also: assay procedure not described here.

T1 sequence (P41595 whole entry): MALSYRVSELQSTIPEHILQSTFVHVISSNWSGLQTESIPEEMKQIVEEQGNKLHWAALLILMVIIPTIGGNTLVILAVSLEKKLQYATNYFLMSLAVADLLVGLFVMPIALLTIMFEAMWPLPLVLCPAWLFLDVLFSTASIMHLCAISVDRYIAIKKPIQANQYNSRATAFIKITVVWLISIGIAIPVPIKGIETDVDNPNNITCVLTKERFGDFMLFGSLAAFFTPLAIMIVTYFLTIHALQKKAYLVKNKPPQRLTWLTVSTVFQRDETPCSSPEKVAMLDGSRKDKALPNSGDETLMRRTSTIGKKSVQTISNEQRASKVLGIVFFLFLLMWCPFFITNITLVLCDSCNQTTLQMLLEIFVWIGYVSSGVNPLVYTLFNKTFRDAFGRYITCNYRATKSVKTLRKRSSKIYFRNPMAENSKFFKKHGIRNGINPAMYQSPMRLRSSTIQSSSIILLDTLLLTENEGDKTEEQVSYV
Beta-2 adrenergic receptor, sequence (P07550 whole entry): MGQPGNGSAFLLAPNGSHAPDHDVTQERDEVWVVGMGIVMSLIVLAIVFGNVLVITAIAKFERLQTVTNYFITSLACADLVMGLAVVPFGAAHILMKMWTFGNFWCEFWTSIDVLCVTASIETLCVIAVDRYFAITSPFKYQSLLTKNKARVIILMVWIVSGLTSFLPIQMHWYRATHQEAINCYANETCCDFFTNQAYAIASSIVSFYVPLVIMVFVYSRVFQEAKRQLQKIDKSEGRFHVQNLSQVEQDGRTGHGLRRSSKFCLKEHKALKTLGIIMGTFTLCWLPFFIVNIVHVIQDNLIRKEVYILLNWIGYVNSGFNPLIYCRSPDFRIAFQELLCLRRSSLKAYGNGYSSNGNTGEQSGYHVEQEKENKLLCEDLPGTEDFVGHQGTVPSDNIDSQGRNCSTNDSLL

| Structure (SMILES) | AC50 [1] [µM] | AC50 [2] [µM] | AC50 [3] [µM] | AC50 [4] [µM] | AC50 [5] [µM] | AC50 [6] [µM] | AC50 [7] [µM] | AC50 [8] [µM] | AC50 [9] [µM] | AC50 [10] [µM] | AC50 [11] [µM] | AC50 [12] [µM] | AC50 [13] [µM] |
| --- | --- | --- | --- | --- | --- | --- | --- | --- | --- | --- | --- | --- | --- |
| CO[C@H]1C[C@@H]2CC[C@@H](C)[C@@](O)(O2)C(=O)C(=O)N2CCCC[C@H]2C(=O)O[C@H]([C@H](C)C[C@@H]2CC[C@@H](O)[C@H](OC)C2)CC(=O)[C@H](C)/C=C(\C)[C@@H](O)[C@@H](OC)C(=O)[C@H](C)C[C@H](C)/C=C/C=C/C=C/1C [SIROLIMUS] | > 10 | > 30 | > 30 | > 30 | > 30 | > 30 | > 30 | > 10 | > 30 | > 30 |  |  |  |
| O=C(OCC(O)CO)c1ccccc1Nc1ccnc2cc(Cl)ccc12 (stereo not drawn) [GLAFENINE] | > 30 | > 30 | > 30 |  | > 30 |  |  | > 30 | > 30 | > 30 | > 30 | > 30 | > 30 |
| O=C(Cc1ccc(-c2ccccc2)cc1)Nc1ccccn1 [DIFENPIRAMIDE] | > 30 | > 30 | > 30 |  | 0.58 |  |  |  | > 30 | > 30 |  | > 30 | > 30 |
